{
  "source": "paper PMC8528301",
  "about": "(PLoS ONE, 2021)",
  "key": {"[1]": {"details": "oral dosing; monkeys; cited from earlier work"}, "[2]": {"assay": "Dasatinib disposition in bile duct cannulated rats (literature)", "assay_type": "in vivo, rat"}, "[3]": {"assay": "Plasma DEX concentrations on discontinuous oral DEX regimen in drinking water (Fig 3)", "assay_type": "in vivo, mouse", "details": "for concentration at 3.5 day / concentration at 10.5 day / concentration at 17.5 day: C57BL/6, mouse, oral, 8 mg/L, Dexamethasone conc; for observed systemic (plasma) concentrations of DEX, range: mice on the discontinuous DEX regimen", "procedure": "1 g/L of tetracycline (Sigma-Aldrich Inc, St. Louis, MO, USA) was added during both phases. Assuming that mice drink 5 mL of water per day, the dose they receive would be 1.6–2 mg/kg/day. […] At the end of in vivo procedures, all plasma samples were transferred from dry ice and stored at –80°C until analysis.\nSidak’s multiple comparison test (**p<0.01, ****p<0.0001) was used to further analyze the effect of vitamin D status at each time point."}, "[4]": {"test_system": "PXR", "details": "cited from earlier work"}},
  "note": "“And” between values parts separate entries of the source, which are not always exact repeats. Identical values can stand only once.",
  "data": [
    {"smiles": "Cc1nc(Nc2ncc(C(=O)Nc3c(C)cccc3Cl)s2)cc(N2CCN(CCO)CC2)n1", "note": "[dasatinib]", "values": [
      {"measurement": "Tmax", "setting": "[1]", "result": 36, "unit": "min"},
      {"measurement": "percentage absorbed", "setting": "[2]; bile duct cannulated rats, inferred from unchanged drug", "result": 67, "unit": "%"},
      {"measurement": "share of absorbed drug that might undergo hepatic metabolism", "setting": "[2]; rats", "result": 60, "unit": "%"},
      {"measurement": "share of total drug that might undergo hepatic metabolism", "setting": "[2]; rats", "result": "at least 40%"}
    ]},
    {"smiles": "C[C@@H]1C[C@H]2[C@@H]3CCC4=CC(=O)C=C[C@]4(C)[C@@]3(F)[C@@H](O)C[C@]2(C)[C@@]1(O)C(=O)CO", "note": "[DEX, dexamethasone]", "values": [
      {"measurement": "estimated Cgut (gut concentration)", "setting": "[3]; discontinuous DEX in drinking water, assuming mice drink 200–400 μl/hr", "result": "7 to 10 µM and 7.6 to 10.1 µM"},
      {"measurement": "concentration at 3.5 day", "setting": "[3]; female, plasma, avg, VD3 deficient, D3.5, n=5", "result": 78, "unit": "nM"},
      {"measurement": "concentration at 10.5 day", "setting": "[3]; female, plasma, avg, VD3 deficient, D10.5, n=4", "result": 63, "unit": "nM"},
      {"measurement": "concentration at 17.5 day", "setting": "[3]; female, plasma, avg, VD3 deficient, D17.5, n=4", "result": 58.5, "unit": "nM"},
      {"measurement": "concentration at 3.5 day", "setting": "[3]; female, plasma, avg, VD3 sufficient, D3.5, n=5", "result": 99.3, "unit": "nM"},
      {"measurement": "concentration at 10.5 day", "setting": "[3]; female, plasma, avg, VD3 sufficient, D10.5, n=4", "result": 52.7, "unit": "nM"},
      {"measurement": "concentration at 17.5 day", "setting": "[3]; female, plasma, avg, VD3 sufficient, D17.5, n=5", "result": 38.7, "unit": "nM"},
      {"measurement": "concentration at 10.5 day", "setting": "[3]; female, plasma, individual mouse, VD3 deficient (GCD), D10.5", "result": 58.6, "unit": "nM"},
      {"measurement": "concentration at 3.5 day", "setting": "[3]; female, plasma, individual mouse, VD3 sufficient (MRE), D3.5", "result": 95.6, "unit": "nM"},
      {"measurement": "concentration at 10.5 day", "setting": "[3]; female, plasma, individual mouse, VD3 sufficient (MRE), D10.5", "result": 49.9, "unit": "nM"},
      {"measurement": "concentration at 3.5 day", "setting": "[3]; male, plasma, avg, plasma, male, VD3 deficient, day 3.5, n=8", "result": 31.7, "unit": "nM"},
      {"measurement": "concentration at 10.5 day", "setting": "[3]; male, plasma, avg, plasma, male, VD3 deficient, day 10.5, n=13", "result": 25.3, "unit": "nM"},
      {"measurement": "concentration at 17.5 day", "setting": "[3]; male, plasma, avg, plasma, male, VD3 deficient, day 17.5, n=13", "result": 13.1, "unit": "nM"},
      {"measurement": "concentration at 3.5 day", "setting": "[3]; male, plasma, avg, plasma, male, VD3 sufficient, day 3.5, n=11", "result": 12.4, "unit": "nM"},
      {"measurement": "concentration at 10.5 day", "setting": "[3]; male, plasma, avg, plasma, male, VD3 sufficient, day 10.5, n=11", "result": 18, "unit": "nM"},
      {"measurement": "concentration at 17.5 day", "setting": "[3]; male, plasma, avg, plasma, male, VD3 sufficient, day 17.5, n=11", "result": 13.3, "unit": "nM"},
      {"measurement": "observed systemic (plasma) concentrations of DEX, range", "setting": "[3]", "result": "2.6 to 201.5", "unit": "nM"},
      {"measurement": "observed systemic (plasma) concentrations of DEX, range", "setting": "[3]; listed as Dexamethasone", "result": "2 to 200", "unit": "nM"},
      {"measurement": "Dexamethasone conc, individual mouse", "setting": "[3]; plasma, female, VD3 deficient (GCD), D3.5", "result": "88.42 nM and 34.10 nM and 126.21 nM and 104.66 nM and 36.85 nM"},
      {"measurement": "Dexamethasone conc, individual mouse", "setting": "[3]; plasma, female, VD3 deficient (GCD), D10.5", "result": "55.47 nM and 71.15 nM and 66.95 nM"},
      {"measurement": "Dexamethasone conc, individual mouse", "setting": "[3]; plasma, female, VD3 deficient (GCD), D17.5", "result": "84.72 nM and 78.40 nM and 26.56 nM and 44.39 nM"},
      {"measurement": "Dexamethasone conc, individual mouse", "setting": "[3]; plasma, female, VD3 sufficient (MRE), D3.5", "result": "94.88 nM and 116.14 nM and 126.22 nM and 63.45 nM"},
      {"measurement": "Dexamethasone conc, individual mouse", "setting": "[3]; plasma, female, VD3 sufficient (MRE), D10.5", "result": "50.92 nM and 57.26 nM"},
      {"measurement": "Dexamethasone conc, individual mouse", "setting": "[3]; plasma, female, VD3 sufficient (MRE), D17.5", "result": "24.99 nM and 23.28 nM and 21.33 nM and 61.18 nM and 62.62 nM"},
      {"measurement": "Dexamethasone conc, individual mouse", "setting": "[3]; plasma, male, VD3 deficient (GCD), 3.5 Days, discontinuous DEX in drinking water", "result": "28.49 nM and 21.78 nM and 23.16 nM and 14.22 nM and 52.94 nM and 69.07 nM and 12.19 nM"},
      {"measurement": "Dexamethasone conc, individual mouse", "setting": "[3]; plasma, male, VD3 deficient (GCD), 10.5 Days", "result": "24.64 nM and 18.60 nM and 35.12 nM and 50.14 nM and 22.77 nM and 19.09 nM and 13.20 nM and 32.61 nM and 4.50 nM and 20.98 nM and 51.76 nM and 9.92 nM"},
      {"measurement": "Dexamethasone conc, individual mouse", "setting": "[3]; plasma, male, VD3 deficient (GCD), 17.5 Days", "result": "7.03 nM and 9.03 nM and 37.95 nM and 11.09 nM and 12.27 nM and 10.43 nM and 10.75 nM and 8.20 nM and 7.99 nM and 10.52 nM and 14.43 nM and 17.77 nM"},
      {"measurement": "Dexamethasone conc, avg", "setting": "[3]; plasma, male, VD3 deficient, day 3.5, n=8", "result": 31.70, "unit": "nM"},
      {"measurement": "Dexamethasone conc, individual mouse", "setting": "[3]; plasma, male, VD3 sufficient (MRE), 3.5 Days", "result": "10.97 nM and 6.41 nM and 7.05 nM and BLQ (BLQ = BELOW the LLOQ, lower lmit of quantification = 5 nM dexamethasone) and 3.62 nM and 34.11 nM"},
      {"measurement": "Dexamethasone conc, individual mouse", "setting": "[3]; plasma, male, VD3 sufficient (MRE), 10.5 Days", "result": "56.24 nM and 2.95 nM and 2.63 nM and 10.01 nM and 12.14 nM and BLQ (BLQ = BELOW the LLOQ, lower lmit of quantification = 5 nM dexamethasone) and 34.37 nM and 7.89 nM"},
      {"measurement": "Dexamethasone conc, individual mouse", "setting": "[3]; plasma, male, VD3 sufficient (MRE), 17.5 Days", "result": "9.70 nM and 6.19 nM and 17.34 nM and 10.75 nM and 11.40 nM and 11.09 nM and 17.17 nM and 6.62 nM and 29.23 nM"},
      {"measurement": "EC50", "setting": "[4]; printed in Fig 9, ref Kliewer SA, et al. Cell. 1998", "result": 30, "unit": "µM"},
      {"measurement": "Kd", "setting": "[4]; relatively weak PXR agonist, no reference given, read-out: Kd as PXR agonist", "result": "~30", "unit": "µM"}
    ]}
  ]
}
